Measurements reported in BigSolDB 2.1.

COc1cccc(CCc2ccccc2OCC(CN(C)C)OC(=O)CCC(=O)O)c1.Cl (stereo not given)
solubility (mole fraction)
Details | in THF | in acetone | in acetonitrile | in ethanol | in isopropanol | in methanol | in n-butanol | in n-propanol
288.15 K | 2.24e-05 | 4.85e-05 | 9.78e-05 | 0.00168 | 4.48e-05 | 0.00376 | 0.00011 | 0.000171
293.15 K | 3.25e-05 | 7.84e-05 | 0.000141 | 0.00211 | 8.24e-05 | 0.00493 | 0.000146 | 0.000262
298.15 K | 4.28e-05 | 0.000106 | 0.000171 | 0.00278 | 0.00011 | 0.00653 | 0.00019 | 0.000354
303.15 K | 7.01e-05 | 0.000193 | 0.000239 | 0.00345 | 0.000144 | 0.00856 | 0.000294 | 0.000504
308.15 K | 9.92e-05 | 0.000275 | 0.000313 | 0.00476 | 0.000186 | 0.0116 | 0.000412 | 0.000698
